Experimental data reported in US8242122B2, “Method and compounds for inhibition of cell death” (University of Central Florida Research Foundation, Inc., priority 2002, dated 2012).
Where “and” joins values, the source holds several entries; their conditions need not be identical. Equal entries are not always repeated. Where two headings read alike, the source gives them in different places.

Key:
[1] = target: T1, His-Omi-134-458 (Homo sapiens, UniProt O43464); settings: 200 ng His-Omi, 5 μg β-casein, 30 min
T1 sequence (O43464 134-458): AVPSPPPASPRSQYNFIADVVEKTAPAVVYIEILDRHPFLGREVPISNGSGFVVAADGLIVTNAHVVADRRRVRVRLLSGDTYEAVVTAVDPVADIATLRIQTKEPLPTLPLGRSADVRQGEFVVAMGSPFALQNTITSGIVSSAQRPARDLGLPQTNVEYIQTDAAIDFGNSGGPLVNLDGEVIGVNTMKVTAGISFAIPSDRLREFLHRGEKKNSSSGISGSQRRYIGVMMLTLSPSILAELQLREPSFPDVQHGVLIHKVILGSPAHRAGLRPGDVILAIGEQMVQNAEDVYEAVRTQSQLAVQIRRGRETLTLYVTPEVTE

[2] = target: T2, MBP-Omi-(134-458) (Homo sapiens, UniProt O43464)
T2 sequence (O43464 134-458): as above

[3] = system: HeLa cells; settings: HeLa cells, 50, 40 and 20 μM, 2 h
[4] = target: Hu-thrombin (Homo sapiens, UniProt P00734); settings: read-out: IC50 Hu-thrombin; two independent experiments
[5] = target: Hu-plasmin (Homo sapiens, UniProt P00747); settings: read-out: IC50 Hu-plasmin; two independent experiments
Sequence of Hu-plasmin (P00747 581-810 limits assumed): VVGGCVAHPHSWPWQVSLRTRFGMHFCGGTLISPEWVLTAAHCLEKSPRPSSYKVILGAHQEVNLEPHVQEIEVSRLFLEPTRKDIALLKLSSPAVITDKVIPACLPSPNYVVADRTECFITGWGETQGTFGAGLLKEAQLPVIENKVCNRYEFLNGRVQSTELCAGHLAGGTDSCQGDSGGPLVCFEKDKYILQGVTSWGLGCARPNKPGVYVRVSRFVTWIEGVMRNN
Sequence of Hu-plasmin (P00747 97-580 limits assumed): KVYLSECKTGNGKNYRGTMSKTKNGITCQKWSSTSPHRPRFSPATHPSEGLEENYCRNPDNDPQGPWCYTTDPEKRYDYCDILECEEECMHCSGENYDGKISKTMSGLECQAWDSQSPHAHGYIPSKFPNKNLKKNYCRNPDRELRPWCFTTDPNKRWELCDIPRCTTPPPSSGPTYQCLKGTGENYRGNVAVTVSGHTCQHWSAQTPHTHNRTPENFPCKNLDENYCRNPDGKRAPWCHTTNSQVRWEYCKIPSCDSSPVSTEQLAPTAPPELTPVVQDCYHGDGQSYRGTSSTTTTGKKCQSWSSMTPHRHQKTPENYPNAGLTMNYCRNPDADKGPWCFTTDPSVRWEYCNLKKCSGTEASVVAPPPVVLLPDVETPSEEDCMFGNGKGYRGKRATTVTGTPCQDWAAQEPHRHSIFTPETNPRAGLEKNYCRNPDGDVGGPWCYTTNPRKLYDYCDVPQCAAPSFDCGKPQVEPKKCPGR

[6] = target: Hu-u-PA (Homo sapiens, UniProt P00749); settings: read-out: IC50 Hu-u-PA; two independent experiments
[7] = target: Hu-rec.-FVIIa (FVIIa/tissue factor) (Homo sapiens, UniProt P08709); settings: read-out: IC50 Hu-rec.-FVIIa; two independent experiments
Sequence of Hu-rec.-FVIIa (FVIIa/tissue factor) (P08709 213-466 limits assumed): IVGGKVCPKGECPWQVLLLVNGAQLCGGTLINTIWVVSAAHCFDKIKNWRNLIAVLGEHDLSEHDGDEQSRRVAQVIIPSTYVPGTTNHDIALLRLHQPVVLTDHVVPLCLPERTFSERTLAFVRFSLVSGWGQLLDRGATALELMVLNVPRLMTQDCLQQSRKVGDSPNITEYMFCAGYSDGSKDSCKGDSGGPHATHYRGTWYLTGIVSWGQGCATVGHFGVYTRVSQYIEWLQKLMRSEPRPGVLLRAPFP
Sequence of Hu-rec.-FVIIa (FVIIa/tissue factor) (P08709 61-212 limits assumed): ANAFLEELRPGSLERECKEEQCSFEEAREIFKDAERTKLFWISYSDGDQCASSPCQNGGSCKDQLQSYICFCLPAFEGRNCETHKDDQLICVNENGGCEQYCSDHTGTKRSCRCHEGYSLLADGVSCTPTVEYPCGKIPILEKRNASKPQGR
Sequence of Hu-rec.-FVIIa (FVIIa/tissue factor) (P13726 33-295 partner): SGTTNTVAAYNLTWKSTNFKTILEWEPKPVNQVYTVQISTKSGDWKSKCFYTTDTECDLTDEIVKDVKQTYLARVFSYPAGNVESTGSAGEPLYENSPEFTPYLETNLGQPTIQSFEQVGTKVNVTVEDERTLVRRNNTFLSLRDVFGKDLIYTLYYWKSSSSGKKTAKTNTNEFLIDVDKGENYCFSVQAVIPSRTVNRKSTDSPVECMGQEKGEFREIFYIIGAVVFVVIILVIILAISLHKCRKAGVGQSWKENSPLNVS

[8] = system: HeLa cells; experiment: Apoptosis in HeLa cells transfected with Omi-GVPS-GFP; settings: increasing concentration of ucf-101
[9] = target: T1, His-Omi-134-458; settings: read-out: IC50 on His-Omi; average from three independent experiments
[10] = target: Hu-kallikrein (Homo sapiens, UniProt P03952); settings: read-out: IC50 Hu-kallikrein; two independent experiments
Sequence of Hu-kallikrein (P03952 391-638 limits assumed): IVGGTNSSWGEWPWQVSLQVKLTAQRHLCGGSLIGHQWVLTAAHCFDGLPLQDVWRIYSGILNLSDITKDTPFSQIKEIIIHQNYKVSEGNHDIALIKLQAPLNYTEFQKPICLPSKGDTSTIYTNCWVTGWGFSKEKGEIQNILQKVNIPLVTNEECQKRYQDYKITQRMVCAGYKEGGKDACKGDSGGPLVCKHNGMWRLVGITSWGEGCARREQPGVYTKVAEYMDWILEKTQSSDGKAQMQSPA
Sequence of Hu-kallikrein (P03952 20-390 limits assumed): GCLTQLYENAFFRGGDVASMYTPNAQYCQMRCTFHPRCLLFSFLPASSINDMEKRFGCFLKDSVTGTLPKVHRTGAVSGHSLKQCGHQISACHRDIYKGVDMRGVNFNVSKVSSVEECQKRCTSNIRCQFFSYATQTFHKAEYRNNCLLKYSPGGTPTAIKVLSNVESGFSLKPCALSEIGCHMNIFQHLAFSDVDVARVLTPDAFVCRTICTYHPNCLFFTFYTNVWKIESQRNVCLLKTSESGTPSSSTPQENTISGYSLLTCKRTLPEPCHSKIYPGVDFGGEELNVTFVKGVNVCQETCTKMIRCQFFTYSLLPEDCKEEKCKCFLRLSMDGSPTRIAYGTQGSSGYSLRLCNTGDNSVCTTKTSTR

[11] = target: Rat-Fxa (Rattus norvegicus, UniProt Q63207); settings: read-out: IC50 Rat-Fxa; two independent experiments
Sequence of Rat-Fxa (Q63207 232-482 limits assumed): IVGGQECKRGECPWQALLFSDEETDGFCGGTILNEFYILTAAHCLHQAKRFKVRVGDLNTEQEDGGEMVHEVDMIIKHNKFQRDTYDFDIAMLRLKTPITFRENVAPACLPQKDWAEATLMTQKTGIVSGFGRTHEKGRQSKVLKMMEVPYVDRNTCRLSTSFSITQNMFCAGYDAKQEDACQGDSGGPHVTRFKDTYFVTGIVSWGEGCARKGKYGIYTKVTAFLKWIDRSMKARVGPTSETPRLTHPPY
Sequence of Rat-Fxa (Q63207 41-180 limits assumed): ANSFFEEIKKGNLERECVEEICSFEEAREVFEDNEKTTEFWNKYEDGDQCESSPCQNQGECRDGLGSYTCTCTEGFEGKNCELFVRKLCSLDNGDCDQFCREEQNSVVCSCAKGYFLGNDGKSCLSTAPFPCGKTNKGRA

[12] = target: Hu-t-PA (Homo sapiens, UniProt P00750); settings: read-out: IC50 Hu-t-PA; two independent experiments
Sequence of Hu-t-PA (P00750 36-562): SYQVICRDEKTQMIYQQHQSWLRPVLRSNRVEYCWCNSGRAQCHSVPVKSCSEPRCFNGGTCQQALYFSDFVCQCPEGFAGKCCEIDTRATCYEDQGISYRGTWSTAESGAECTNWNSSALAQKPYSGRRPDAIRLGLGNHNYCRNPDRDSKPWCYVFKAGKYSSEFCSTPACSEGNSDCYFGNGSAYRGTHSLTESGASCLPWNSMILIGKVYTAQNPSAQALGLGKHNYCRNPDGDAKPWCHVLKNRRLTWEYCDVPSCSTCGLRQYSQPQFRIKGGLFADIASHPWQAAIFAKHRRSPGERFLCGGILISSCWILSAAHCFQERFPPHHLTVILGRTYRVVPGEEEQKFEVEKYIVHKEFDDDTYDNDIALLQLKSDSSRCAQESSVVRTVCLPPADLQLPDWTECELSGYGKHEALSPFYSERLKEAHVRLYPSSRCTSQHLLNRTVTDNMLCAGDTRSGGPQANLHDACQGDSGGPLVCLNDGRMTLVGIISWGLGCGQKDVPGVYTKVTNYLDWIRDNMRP

[13] = target: MBP-L56-(140-480) (L56/HtrA1) (Homo sapiens, UniProt Q92743); settings: various concentrations; initial 20 min
Sequence of MBP-L56-(140-480) (L56/HtrA1) (Q92743 140-480): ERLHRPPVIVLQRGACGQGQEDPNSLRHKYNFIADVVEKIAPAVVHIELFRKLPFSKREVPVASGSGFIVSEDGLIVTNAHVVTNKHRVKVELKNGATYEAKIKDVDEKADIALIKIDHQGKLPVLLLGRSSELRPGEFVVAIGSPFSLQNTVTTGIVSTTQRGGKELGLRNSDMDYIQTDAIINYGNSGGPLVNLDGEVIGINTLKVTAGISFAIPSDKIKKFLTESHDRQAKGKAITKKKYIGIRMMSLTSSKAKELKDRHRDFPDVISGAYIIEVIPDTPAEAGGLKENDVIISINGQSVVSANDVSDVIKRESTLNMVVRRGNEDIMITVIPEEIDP

[14] = target: T1, His-Omi-134-458; settings: 30 min at 37° C
[15] = system: Canine-Fxa; settings: read-out: IC50 Canine-Fxa; two independent experiments
[16] = system: MPT cells; experiment: Cisplatin-induced apoptosis in MPT cells, annexin V flow cytometry; settings: 20 μM or 50 μM ucf-101 for 20 minutes, then cisplatin 6 hours
[17] = target: Bovine-trypsin (Bos taurus, UniProt P00760); settings: read-out: IC50 Bovine-trypsin; two independent experiments
Sequence of Bovine-trypsin (P00760 24-246): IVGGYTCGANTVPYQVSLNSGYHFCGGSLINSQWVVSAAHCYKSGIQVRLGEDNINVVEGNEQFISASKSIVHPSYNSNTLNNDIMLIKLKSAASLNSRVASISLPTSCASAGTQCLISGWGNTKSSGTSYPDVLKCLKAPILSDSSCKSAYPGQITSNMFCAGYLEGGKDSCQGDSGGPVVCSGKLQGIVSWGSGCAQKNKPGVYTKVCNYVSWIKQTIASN

[18] = target: T2, MBP-Omi-(134-458); settings: 10 μM compound; after two rounds of screening and selection
[19] = system: caspase-9 (−/−) null fibroblasts

## Cc1cccc([N+](=O)[O-])c1-c1ccc(C=C2C(=O)N(c3ccccc3)C(=S)N(c3ccccc3)C2=O)o1 [ucf-101]
[1]; 80 μM
  inhibition of His-Omi-(134-458) activity against β-casein: inhibit completely
[1]; 10-100 μM (lanes 4-9)
  inhibition of His-Omi-(134-458) activity against β-casein: concentration-dependent manner
[2]; 10 μM ucf-101, various amounts of Dcasein-FITC
  mode of inhibition: competitive inhibitor
[2]; 20 μM compound, 10 μg Dcasein-FITC, 2 μg enzyme
  inhibition of MBP-Omi-(134-458) activity: more than 78%
[2]; preincubated at 37° C for 40 min or 1 h, various concentrations
  effect of longer preincubation with enzyme on inhibition (reversibility): inhibition was reduced
[3]
  ability to enter mammalian cells (cytoplasmic fluorescence): cells are permeable to this chemical
[4]
  IC50: > 500 µM
[5]
  IC50: > 500 µM and 400 µM
[6]
  IC50: ≥ 500 µM
[7]
  IC50: > 500 µM
[8]
  protease activity and apoptosis induced by Omi-GVPS-GFP: inhibited the protease activity and apoptosis
[9]
  IC50: 9.5 µM
[10]
  IC50: 200 µM and 250 µM
[11]
  IC50: 410 µM and > 500 µM
[12]
  IC50: 390 µM
[13]
  inhibition of L56-(140-480) activity: effective inhibitor of the activity of His-L56-(140-480) but to a lesser extent than His-Omi-(134-458)
[14]
  cleavage of two kidney cytoplasmic polypeptides (14-3-3, annexin V) by His-Omi: cleavage was prevented
[15]
  IC50: 430 µM and 360 µM
[16]
  cisplatin-induced apoptosis (annexin V positive cells): reduces apoptosis in a dose-dependent manner
[17]
  IC50: > 500 µM
[18]
  inhibition of MBP-Omi-(134-458) activity: > 50%
[19]; 25 μM, M-Omi-GFP and control transfected cells
  cytotoxicity: cytotoxic side effect that caused apoptosis
[19]; M-Omi-GFP transfected cells, up to 10 μM, 36 h
  reduction of Omi-induced apoptosis: up to 40%
[19]; pEGFP-N1 transfected cells, up to 10 μM
  effect on control (vector alone) transfected cells: no effect
[19]; treated with ucf-101
  apoptosis of fibroblasts transfected with cytoplasmic Omi: apoptosis was dramatically reduced
